Experimental data reported in the supplement of paper PMC10307832.

Key:
Experiment in all cases: relative viability (nuclei count vs DMSO), 5 days (fraction); higher = more cells survive
[1] = compound: C1=CC=C(C(=C1)C2=CC=C(C=C2)C3=CSC4=C3C(=C(C(=O)N4)C#N)O)O + N=C(N)NC(=N)NCCc1ccccc1 [Phenformin] (partner 250 µM)
How it was run: (§1)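 Five library-drug doses in √10 steps were combined with a fixed anchor-drug dose, or a single drug was given alone, by pin tool to lung cancer cell lines in 1536-well plates the day after seeding. Nuclei were stained and counted after 5 days. Relative viability is the nuclei count in treated wells over that in vehicle wells, taken as the median of duplicate plates.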

[2] = compound: C1=CC=C(C(=C1)C2=CC=C(C=C2)C3=CSC4=C3C(=C(C(=O)N4)C#N)O)O + Nc1ncn([C@H]2C[C@H](O)[C@@H](CO)O2)c(=O)n1 [Decitabine] (partner 2 µM)
How it was run: as §1

[3] = compound: CC1=CN2C(=O)C=C(N=C2C(=C1)C(C)NC3=CC=CC=C3)N4CCOCC4 [TGX 221] + Cc1nc(NC(=O)N2CCC[C@H]2C(N)=O)sc1-c1ccnc(C(C)(C)C(F)(F)F)c1 [Alpelisib] (partner 2 µM)
How it was run: as §1

[4] = compound: O=C(CCCCCCNC(=O)c1cnc(N(c2ccccc2)c2ccccc2)nc1)NO [Ricolinostat] + CS(=O)(=O)CCNCc1ccc(-c2ccc3ncnc(Nc4ccc(OCc5cccc(F)c5)c(Cl)c4)c3c2)o1 [Lapatinib] (partner 2 µM)
How it was run: as §1

Row | Cell Line | relative viability ([1]; first compound 0.08 µM) | relative viability ([1]; first compound 0.253 µM) | relative viability ([1]; first compound 0.8 µM) | relative viability ([1]; first compound 2.53 µM) | relative viability ([1]; first compound 8 µM) | relative viability ([2]; first compound 0.253 µM) | relative viability ([2]; first compound 0.8 µM) | relative viability ([2]; first compound 2.53 µM) | relative viability ([2]; first compound 8 µM) | relative viability ([3]; first compound 0.08 µM) | relative viability ([3]; first compound 0.253 µM) | relative viability ([3]; first compound 0.8 µM) | relative viability ([3]; first compound 2.53 µM) | relative viability ([3]; first compound 8 µM) | relative viability ([4]; first compound 0.08 µM) | relative viability ([4]; first compound 0.253 µM) | relative viability ([4]; first compound 0.8 µM) | relative viability ([4]; first compound 2.53 µM) | relative viability ([2]; first compound 0.08 µM)
1 | HCC-366 | 0.632 | 0.623 | 0.584 | 0.646 | 0.591 | 0.46 | 0.343 | 0.332 | 0.358 | 0.307 | 0.234 | 0.245 | 0.0984 | 0.127 | 1.02 | 1.02 | 0.918 | 0.363 | –
2 | HCC-827 | 0.396 | 0.377 | 0.424 | 0.387 | 0.394 | 0.361 | 0.277 | 0.351 | 0.313 | 0.929 | 0.807 | 0.904 | 0.482 | 0.438 | 0.173 | 0.184 | 0.173 | 0.155 | 0.318
3 | HOP-62 | 0.57 | 0.854 | 0.565 | 0.679 | 0.359 | 0.238 | 0.221 | 0.238 | 0.211 | 0.899 | 0.958 | 0.827 | 1.13 | 1.11 | 0.935 | 0.88 | 0.923 | 0.843 | 0.218
4 | IA-LM | – | – | – | – | – | – | – | – | – | 0.753 | 0.818 | 0.792 | 0.614 | 0.589 | – | 0.841 | 0.542 | 0.398 | –
5 | LC-2-ad | 0.518 | 0.657 | 0.608 | 0.576 | 0.551 | 0.865 | 0.832 | 0.777 | 0.791 | 0.81 | – | 0.722 | 0.645 | 0.62 | 0.883 | 0.943 | 0.98 | 0.678 | 0.743
6 | LCLC-97TM1 | 0.43 | 0.443 | 0.463 | 0.498 | 0.46 | 0.267 | 0.226 | 0.252 | 0.226 | 0.261 | 0.246 | 0.287 | 0.199 | 0.214 | 0.658 | 1.09 | 0.87 | 1.15 | 0.237
7 | LCLC-103H | 0.265 | 0.342 | 0.374 | 0.354 | 0.305 | 0.734 | 0.695 | 0.697 | 0.79 | 1.03 | 0.896 | 0.776 | 0.743 | 0.654 | – | – | – | – | 0.799
8 | LK-2 | – | 0.466 | 0.376 | 0.661 | 0.245 | 0.228 | 0.236 | 0.343 | 0.314 | 1.02 | 1.05 | 0.959 | 0.665 | 1 | 0.908 | 1.2 | 0.941 | 0.913 | 0.178
9 | LOU-NH91 | 0.716 | 0.726 | 0.655 | 0.616 | 0.63 | 0.865 | 0.824 | 0.781 | 0.782 | 0.69 | 0.706 | 0.682 | 0.697 | 0.575 | – | 0.872 | 0.778 | 0.78 | 0.854
10 | LU99A | 0.765 | 0.838 | 0.769 | 0.891 | 0.896 | 0.523 | 0.961 | 0.777 | 1.02 | 0.524 | 0.443 | 0.494 | 0.513 | 0.57 | 0.833 | 0.853 | 0.846 | 0.541 | 0.894
11 | LXF-289 | 0.491 | 0.538 | 0.553 | 0.507 | 0.485 | 0.393 | 0.393 | 0.364 | 0.365 | 0.948 | 0.979 | 0.947 | 0.898 | 0.898 | 0.847 | 0.907 | 0.897 | 0.731 | 0.428
12 | NCI-H23 | 0.782 | 0.85 | 0.872 | 0.754 | 0.583 | 0.33 | 0.337 | 0.327 | 0.312 | 0.66 | 0.572 | 0.471 | 0.606 | 0.574 | 1.16 | 1.25 | 0.998 | 0.773 | 0.305
13 | NCI-H441 | 0.706 | 1.01 | 1.03 | 0.927 | 0.633 | 0.3 | 0.286 | 0.242 | 0.233 | 0.889 | 0.723 | 0.717 | 0.768 | 0.848 | – | – | – | – | 0.28
14 | NCI-H522 | 0.643 | 0.613 | 0.747 | 0.571 | 0.63 | 0.772 | 0.674 | 0.628 | 0.671 | – | – | – | – | – | – | – | – | – | 0.739
15 | NCI-H1299 | – | – | – | – | – | – | – | – | – | 0.991 | 1.07 | 1.12 | 1.14 | 1.17 | 0.941 | 0.871 | 0.902 | 0.895 | –
16 | NCI-H1563 | 0.63 | 0.714 | 0.702 | 0.622 | 0.679 | – | – | – | – | 0.834 | 0.777 | 0.658 | 0.607 | 0.594 | 0.898 | 0.927 | 0.97 | 0.834 | –
17 | NCI-H1623 | 0.623 | 0.623 | 0.569 | 0.568 | 0.534 | – | – | – | – | – | – | – | – | – | – | – | – | – | –
18 | NCI-H1648 | – | – | – | – | – | 0.537 | 0.493 | 0.478 | 0.458 | – | – | – | – | – | – | – | – | – | –
19 | NCI-H1650 | 0.406 | 0.358 | 0.437 | 0.439 | 0.362 | 0.535 | 0.496 | 0.384 | 0.367 | – | – | – | – | – | 0.577 | 0.72 | 0.6 | 0.752 | 0.456
20 | NCI-H1703 | – | – | – | – | – | – | – | – | – | 0.269 | 0.222 | 0.176 | 0.267 | 0.235 | 1.03 | 0.928 | 1.06 | 1.07 | –
21 | NCI-H2228 | 0.316 | 0.318 | 0.322 | 0.307 | 0.225 | – | – | – | – | 0.693 | 0.468 | 0.551 | 0.523 | 0.403 | 0.876 | 0.88 | 1.11 | 0.574 | –
22 | NCI-H2342 | 0.578 | 0.704 | 0.58 | 0.602 | 0.469 | 0.774 | 0.724 | 0.729 | 0.604 | – | – | – | – | – | – | – | – | – | 0.826
23 | SW 900 | 0.484 | 0.895 | 0.534 | 0.638 | 0.405 | 0.452 | 0.467 | 0.459 | 0.446 | – | – | – | – | – | – | – | – | – | –
